Experimental data published in patent publication US9517237B2, “Compounds and methods for treating multiple sclerosis” (NEURO VIGOR, LLC, priority 2010, dated 2016).

Experiments:
EAE mice = tested on: EAE mice
Protocol: Animals. C57BL/6 female mice (8 weeks old) were purchased from Harlan Laboratories and were maintained in the lab animal housing facilities. These studies were performed in compliance with the Purdue Animal Care and Use Committee protocol guidelines at Purdue University, West Lafayette, Ind.
Induction of EAE. Nine-twelve week old mice were subcutaneously injected with 0.1 mL MOG35-55/CFA emulsion (EK-0115, Hooke Laboratories) in the neck and lower back (total of 0.2 mL). Within two hours of the injection, 0.1 mL pertussis toxin (EK-0115, Hooke Laboratories) was administered intraperitoneally. A second dose of pertussis toxin of the same volume was given 22-26 hours later. The behavioral performance was assessed using a well established 5-point behavioral scoring system (Kalyvas and David, 2004). The animals were placed on a metal grate and their walking ability was recorded. The scoring system is as follows: 0—no deficit; 1—limp tail only; 2—hind limb paresis but without leg dragging; 3—partial hind limb weakness with one or both legs dragging; 4—complete hind limb paralysis; 5—moribund, paralysis in hind limbs and possibly in one forelimb. The animals were monitored and assessed three times during the first week and then assessed daily for the remainder of the study.
(§1) Hydralazine Treatment. A solution of hydralazine hydrochloride (Sigma) was prepared with phosphate buffered saline. The solution was then sterilized through a filter and stored at 4° C. Hydralazine (1 mg/kg) was administered through daily with intraperitoneal injections from the day the MOG/CFA emulsion was administered until the end of the 30 day study period. For sham treatments, mice were administered saline intraperitoneally rather than the hydralazine solution. Blood pressures were monitored using a CODA 2 system (Kent Scientific Corp.).
(§2) One group of EAE mice are injected with hydralazine (EAE+HZ) at the dose of 1 mg/kg daily starting from the day of induction (n=11). In the sham-treated group (EAE), an equal amount of saline is injected daily (n=12). Both hydralazine and saline (sham) treatments are carried out for 30 days post induction. The behavioral scores of the two groups of mice are recorded daily (FIG. 2 panel A).
Phenelzine is administered via intraperitoneal (IP) injections at 15 mg/kg for 30 days. […] The highest score for each mouse was taken and averaged within each group. All data are expressed as mean±SEM.

[1] = mouse, in vivo
Protocol: as §1, §2

EAE mice spinal cord = conditions: thoracic spinal cord cross section, n=3, sham treated 25.58±3.8%
Protocol: Mice were perfusion fixed with 4% paraformaldehyde and the vertebral columns were removed and fixed in 4% paraformaldehyde overnight. Spinal cord tissues were extracted out of the vertebral column, cut into 1 cm pieces, and further fixed in 4% paraformaldhyde for 24-48 hours. The samples were cryoprotected by incubating for 24 h in a 10% sucrose solution, followed by 24 hours in a 20% sucrose solution. The samples were then imbedded in Tissue-Tek OCT compound (VWR, Batavia, Ill.) and frozen in liquid nitrogen. 15 μm sections were cut using a cryostat and mounted on gelatin coated slides. Sections were incubated with 5% goat serum and 0.5% Triton-X100 in phosphate buffered saline (PBS) for 30 minutes as blocking agents. […] All sections were observed by fluorescence microscopy.
For quantification, the thoracic sections were imaged, and Adobe Photoshop was used to outline the demyelination area and total white matter area. Pixel area for each sample was calculated and the percentage of demyelination was obtained by dividing the total demyelinated area by total white matter area. […] For each of the 3 groups, (control, EAE, EAE+HZ), 3 animals were used for immunofluorescence quantification.
Total white matter area and lesion areas are manually outlined and the pixel area is calculated. Percent demyelination is calculated by dividing total demyelinated area by total white matter area.

acrolein-lysine adducts = conditions: EAE mice treated with hydralazine, n=3, mean±SEM; EAE 20.27±3.0, control 12.30±1.3
Protocol: Acrolein-lysine adducts in the tissue homogenate was measured using a Bio-Dot SF Microfiltration Apparatus (Bio-Rad, Hercules, Calif., USA), as previously described (Luo et al., 2005a; Shao et al., 2006; Hamann et al., 2008a). Briefly, the tissue was homogenized with TritonX-100 (3%), and the following anti-proteases were added: 2 mmol/L pefabloc, 15 lmol/L pepstatin A, 20 µg/mL aprotinin, and 25 µg/mL leupeptin. The solution was centrifuged to pellet large pieces of tissue and the supernatant was stored at −80° C. until transferred to a nitrocellulose membrane. The membrane was blocked for 1 h in blocking buffer (0.2% casein and 0.1% Tween 20 in PBS) and transferred to 1:1000 polyclonal rabbit anti-acrolein (in blocking buffer with 2% goat serum and 0.025% sodium azide) (Novus Biologicals) for 18 h at 4° C. Next, the membrane was washed in blocking buffer and then transferred to 1:10000 alkaline phosphatase conjugated goat anti-rabbit IgG. […]
The optical density of bands was evaluated using Image J (NIH) and statistical comparison was performed with SAS 9.2 (SAS institute). […]
The acrolein-lysine adducts in control (n=3), EAE mice (n=3) and EAE+HZ mice (n=3) spinal cord are detected using Bio-Dot SF Microfiltration Apparatus. […] Band intensities are analyzed using ImageJ (NIH) and are expressed in arbitrary units. […] All data are expressed as mean±SEM.

SMILES | behavioral scores evaluated daily (EAE mice; 5-point scale, phenelzine IP 15 mg/kg for 30 days, vs sham) | mean behavioral scores (highest score for each mouse averaged) (EAE mice; phenelzine IP 15 mg/kg for 30 days, vs EAE, p<0.005) | time to EAE symptom onset (EAE mice; phenelzine IP 15 mg/kg for 30 days, vs sham, p<0.005) | average onset of symptoms (EAE mice; 1 mg/kg daily i.p. from day of induction, n=11, mean±SEM, sham 15.42±0.4) [days post induction] | average behavioral score (highest score for each mouse averaged within group) (EAE mice; 5-point scale, 1 mg/kg daily i.p. from day of induction, mean±SEM, EAE group 3.33±0.3) | average systolic pressure of EAE mice [1] [mmHg] | average systolic pressure of normal mice [1] [mmHg] | percent demyelination in white matter (EAE mice spinal cord) [%] | acrolein-lysine adduct level in EAE mice spinal cord (acrolein-lysine adducts) [a.u.]
NNCCc1ccccc1 [phenelzine] | significant differences for all comparisons following day 14 | mean behavioral scores are significantly increased in EAE mice compared to the phenelzine treated (EAE+PLZ) group | significant delay in disease progression | – | – | – | – | – | –
NNc1nncc2ccccc12 [hydralazine] | – | – | – | 21.73±2.1 | 1.72±0.4 | 134.8±4.5 | 118.5±6.4 | 5.10±4.2 | 15.14±1.6
